This assay concerns E. coli wild-type GFP growth, mixed culture, 24 h. Put plainly: growth inhibition of wild-type GFP E. coli, H38-humanized RFP comparator, dose response, H38 mutant RFP vs wild-type GFP, cherry-pick (AID 977630).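 Note: wild-type GFP strain mixed equally with humanized-ribosome H38 mutant expressing RFP.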
The mark [1] stands for this setting: E. coli mixed culture total OD600 growth, 24 h.

Molecules are shown by their SMILES. Records with an inconclusive call do not appear. Calls of active or inactive are those of the source.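 Rule for the calls: active = Normal-ribosome green reporter loss at least double humanized-ribosome red reporter loss, with overall culture growth inhibition under a set limit; inconclusive = no clear call, values can overlap the other calls; inactive = the rest.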

This note sets out measurements from PubChem BioAssay AID977630 (Broad Institute, 2014).

The term AC50 denotes the concentration giving half of the maximal activity seen.

Consider `CC(=O)Nc1ccc(OCC(=O)N2CCC(Cc3ccccc3)CC2)cc1`, for which the AC50 is > 100 µM (inactive). For the compound `COc1ccccc1CNC(=O)CN1C(=O)NC(c2ccccc2)(c2ccccc2)C1=O`, the AC50 was > 100 µM (inactive). Under setting [1], this compound came in with an AC50 of over 100 µM. Regarding `Cc1nonc1C1CCCN1C(=O)c1cc(COc2ccc(F)cc2F)on1` (stereo not given), the AC50 was > 100 µM (inactive).

`N#Cc1nc(-c2ccco2)oc1NCc1ccccc1Cl`: the AC50 was > 100 µM (inactive). Besides, the AC50 under setting [1] was 41.5 µM. Take `COC(=O)CC#C[C@H](C)[C@@H](NS(=O)(=O)c1ccc([N+](=O)[O-])cc1)C(C)(C)C`: the AC50 is > 100 µM (inactive). As for `CCn1c(-c2ccccc2Cl)nn(CC(=O)Nc2ccccc2OC)c1=S`, the AC50 was > 100 µM (inactive). This compound showed an AC50 under setting [1] of over 100 µM. Regarding `CCOc1ccc(OCCn2c(=S)[nH]c3c(N)ncnc32)cc1`, the AC50 was > 100 µM (inactive). Same read-out and setting: as for `CCN(CC(=O)Nc1cccc(C#N)c1)CC(=O)Nc1cccc(OC)c1`, the figure is > 100 µM (inactive).

In the case of `C=CCNC(=O)c1ccccc1CCc1ccccc1`, the AC50 was > 100 µM (inactive). For `O=C(CCCOc1ccc(Cl)cc1Cl)Nc1ccccc1C(=O)O`, the AC50 was > 100 µM (inactive). The compound further yielded an AC50 under setting [1] of over 100 µM. For `CCOCCCNC(=O)C(NC(=O)c1ccccc1O)c1ccc(C)cc1` (stereo not given), in that order: > 100 µM (inactive) and over 100 µM.

`O=C(CCNc1cccc(Cl)c1)c1cccs1`: the AC50 was > 100 µM (inactive). Consider `O=S(=O)(c1ccccc1)N1CCN=C1SCc1cccc(Cl)c1`, for which the AC50 is > 100 µM (inactive). Also, under setting [1], the AC50 was over 100 µM. `CCOc1ccc2nc(SCC(=O)Nc3nonc3C)[nH]c2c1`: the AC50 was > 100 µM (inactive). Further, the AC50 under setting [1] was over 100 µM. As to `O=C(NCc1ccc2c(c1)OCO2)C1CCCN1S(=O)(=O)c1ccc(Cl)cc1` (stereo not given), the AC50 was > 100 µM (inactive). Turning to `Cc1nnn(C23CC4CC(CC(CC(=O)Nc5ccc(C)c(C)c5)(C4)C2)C3)n1`, the AC50 was > 100 µM (inactive). Regarding `COc1cccc(-c2ccc(NC(=O)C3CCCN(Cc4cnn(C(C)C)c4)C3)cc2)c1` (stereo not given), under setting [1], the AC50 was over 100 µM. For `CCN(CC)S(=O)(=O)c1cccc(NC(=O)CNc2cccc(S(=O)(=O)N3CCCC3)c2)c1`, the AC50 is > 100 µM (inactive). For the compound `CC(=O)c1c(C)nn(CC(O)COc2ccc3c(c2)CCC3)c1C` (stereo not given), the AC50 is > 100 µM (inactive). This compound registered an AC50 under setting [1] of over 100 µM. Under setting [1], `CCCCOc1ccc(-c2nnn(CCC(=O)N3CCOCC3)n2)cc1` had an AC50 of over 100 µM. For the compound `O=C(COC(=O)C1CC1)Nc1nc(-c2ccc(F)c(F)c2)cs1`, the AC50 is > 100 µM (inactive). In the case of `Cc1onc(-c2ccccc2Cl)c1C(=O)Nc1ccc(Cl)cn1`, the AC50 is > 100 µM (inactive). On to `CCC1(CC)NC(=O)N(CC(=O)N2N=C(c3ccc(Cl)cc3)CC2c2ccco2)C1=O` (stereo not given), for which the AC50 was > 100 µM (inactive). Same read-out and setting: next, `CN(C)S(=O)(=O)c1ccc(Cl)c(C(=O)OCC(=O)NC(=O)c2cccn2C)c1`: > 100 µM (inactive); `Cc1cc(C)n2nc(C(=O)Nc3cccc(S(=O)(=O)N(C)c4ccccc4)c3)nc2n1`: > 100 µM (inactive); `CN(C)CCCN(C(=O)CCSc1ccccc1)c1nc2cc3c(cc2s1)OCO3`: > 100 µM (inactive). With `CC1CCN(C(=O)COC(=O)c2ccccc2NC(=O)c2ccco2)CC1`, the AC50 is > 100 µM (inactive). For the compound `Cc1ccccc1-n1c([C@@H]2C[C@H]2c2ccccc2)n[nH]c1=S`, the AC50 was > 100 µM (inactive). As to `COc1ccc(CSc2nc3ccccc3c(=O)n2CCCN2CCOCC2)cc1F`, the AC50 was > 100 µM (inactive). As for `COc1ccc(NC(=O)c2cccs2)cc1C(=O)N1CCN(c2ccccc2)CC1`, the AC50 is > 100 µM (inactive). On to `Cc1ccc(-c2nc(CN3CCCCC3c3cccc(F)c3)c(C)o2)o1` (stereo not given), for which the AC50 is > 100 µM (inactive). Compound `COc1ccc(C2CC(c3cccs3)=Nc3ccccc3S2)cc1` (stereo not given) came in with an AC50 under setting [1] of over 100 µM. Regarding `CCc1cc(C(=O)N2CCCC(C(=O)c3cccc4ccccc34)C2)n(C)n1` (stereo not given), the AC50 is > 100 µM (inactive). For the compound `COCC(C)NC(=O)c1nn(Cc2ccccc2)c(=O)c2ccccc12` (stereo not given), the AC50 was > 100 µM (inactive). The AC50 under setting [1] is over 100 µM. As for `COc1cc(OC)cc(C(=O)Nc2ccc(C(=O)Nc3ccccc3OC)cc2)c1`, the AC50 is > 100 µM (inactive).

As to `Nc1ccc(C(=O)Nc2ccc3nc(-c4ccncc4)[nH]c3c2)cc1`, under setting [1], the AC50 is over 100 µM. `O=C(NCCCCc1ccccc1)c1cccc(NC(=O)C2CCCCC2)c1`: the AC50 was > 100 µM (inactive). The compound further had an AC50 under setting [1] of over 100 µM. For the compound `COc1cc2cc(C(=O)Nc3ccc4c(c3)OCCO4)[nH]c2cc1OC`, the AC50 was > 100 µM (inactive). The same compound returned an AC50 under setting [1] of over 100 µM.

`CCCCn1c(NS(=O)(=O)c2ccc(C)cc2)c(C(=O)OCC)c2nc3ccccc3nc21`: the AC50 was > 100 µM (inactive). Moreover, under setting [1], the AC50 is over 100 µM.

In the case of `CCCNc1ccc(C(=O)OCC)cc1[N+](=O)[O-]`, the AC50 was > 100 µM (inactive). Besides, the AC50 under setting [1] was over 100 µM. For `O=C(O)c1ccc2c(c1)N(Cc1ccccc1)C(=O)c1ccccc1S2`, in that order: > 100 µM (inactive) and over 100 µM. As to `O=c1[nH]c(C2CCCN(S(=O)(=O)c3ccccc3Cl)C2)nc2c1nnn2Cc1ccc2c(c1)OCCO2` (stereo not given), the AC50 was > 100 µM (inactive). This compound also gave an AC50 under setting [1] of over 100 µM. Take `O=C(Nc1ccccc1N1CCN(C(=O)c2ccccc2)CC1)c1ccc([N+](=O)[O-])o1`: the AC50 is > 100 µM (inactive).

For `COC(=O)c1cc(C(=O)c2c(C)cc3ccccn23)cc([N+](=O)[O-])c1`, under setting [1], the AC50 is over 100 µM. As to `CCN(c1ccccc1)S(=O)(=O)c1ccc(OC)c(NC(=O)C2CC(=O)N(Cc3ccccc3)C2)c1` (stereo not given), the AC50 was > 100 µM (inactive).

As for `CC(=O)Nc1ccc(S(=O)(=O)Nc2cccc(-c3nc4cc(C)ccc4o3)c2)cc1`, the AC50 is > 100 µM (inactive). The compound further came in with an AC50 under setting [1] of over 100 µM.

As to `COc1cccc(NC(=O)CSc2nc3c(sc4ccccc43)c(=O)n2CCN(C)C)c1`, the AC50 was > 100 µM (inactive). In turn, `CCOC(=O)c1c(C)[nH]c(C)c1S(=O)(=O)NCCN1CCN(c2ccccc2F)CC1` yielded a concentration at half-maximal activity (AC50) under setting [1] of over 100 µM. As for `O=C(Cc1c(Cl)cccc1Cl)Nc1cccc(S(=O)(=O)N2CCOCC2)c1`, the AC50 is > 100 µM (inactive). On to `CCCc1nc2oc3c(NCCCN(C)C)ncnc3c2c2c1CCCC2`, for which the AC50 was > 100 µM (inactive). Also, the AC50 under setting [1] is over 100 µM. Take `O=C(Nc1ccc(Br)cc1)c1cccnc1N1CCCCC1`: the AC50 under setting [1] is over 100 µM. In the case of `COc1cc(CC(=O)Nc2nc(C)cs2)cc(OC)c1OC`, the AC50 under setting [1] was over 100 µM. Turning to `Cc1ccsc1C(=O)C1CCCN(Cc2cc(F)ccc2-n2cccn2)C1` (stereo not given), the AC50 is > 100 µM (inactive). The compound further gave an AC50 under setting [1] of over 100 µM.

With `O=c1[nH]nc(SCc2ccccc2)n1C1CC2C=CC1C2` (stereo not given), the AC50 is > 100 µM (inactive). In addition, the AC50 under setting [1] is 49.8 µM.

For the compound `CCNC(=O)C1(C)CCCN(Cc2cccc3ccccc23)C1` (stereo not given), the AC50 is > 100 µM (inactive). Same read-out and setting: as for `Cc1ccc(NC(=O)c2ccc([N+](=O)[O-])o2)c(C)c1`, the figure is > 100 µM (inactive).
